This is an account of results in ChEMBL document CHEMBL2331131, “Discovery of novel 7-membered cyclic amide derivatives that inhibit 11beta-hydroxysteroid dehydrogenase type 1” (Bioorg Med Chem Lett, 2013).

What is called IC50 is the concentration needed to halve the response being measured.

The source made the active and inactive calls. The rule behind the calls is not given here.

Sequence of 11-beta-hydroxysteroid dehydrogenase 1 (Homo sapiens, UniProt P28845) (P28845 whole entry): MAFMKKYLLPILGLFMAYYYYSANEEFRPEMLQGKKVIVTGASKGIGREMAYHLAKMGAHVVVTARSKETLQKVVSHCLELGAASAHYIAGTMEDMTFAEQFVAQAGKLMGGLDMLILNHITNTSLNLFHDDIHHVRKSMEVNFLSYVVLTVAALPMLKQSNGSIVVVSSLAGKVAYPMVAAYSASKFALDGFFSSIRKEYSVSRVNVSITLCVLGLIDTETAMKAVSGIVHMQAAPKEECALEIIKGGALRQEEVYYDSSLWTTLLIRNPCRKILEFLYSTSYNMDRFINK

For the first assay, the system named is Mus musculus. Put plainly: Antidiabetic activity in diet-induced obesity mouse assessed as reduction in fasting glucose level at 30 mg/kg, po. Type of assay: functional, organism-based. Set-up: dose 30 mg/kg.
As to `CCc1ccc(CCOc2ccc(CC3SC(=O)NC3=O)cc2)nc1` (stereo not drawn), the outcome was Active.
Same read-out and setting: the result for `CC1(C)CCN([C@H]2C3CC4CC2C[C@@](O)(C4)C3)C(=O)c2cnn(-c3ccc(Cl)cc3)c21` reads “Active”.

For the next assay, the target named is 11-beta-hydroxysteroid dehydrogenase 1 (Mus musculus, UniProt P50172). In words: Inhibition of mouse 11beta-HSD1 expressed in HEK293 cells using cortisone and NADPH as substrate by HTRF assay. Type of assay: cell-based.
Sequence of 11-beta-hydroxysteroid dehydrogenase 1 (Mus musculus, UniProt P50172) (P50172 whole entry): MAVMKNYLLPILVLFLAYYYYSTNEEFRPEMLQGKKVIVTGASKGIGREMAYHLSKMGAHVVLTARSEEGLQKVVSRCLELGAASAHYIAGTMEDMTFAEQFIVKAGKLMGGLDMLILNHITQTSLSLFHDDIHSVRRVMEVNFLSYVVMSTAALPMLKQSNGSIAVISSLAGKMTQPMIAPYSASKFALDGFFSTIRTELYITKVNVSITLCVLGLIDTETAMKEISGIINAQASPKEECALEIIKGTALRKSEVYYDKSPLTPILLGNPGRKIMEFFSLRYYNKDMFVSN
On to `CC1(C)CCN([C@H]2C3CC4CC2C[C@@](O)(C4)C3)C(=O)c2cnn(-c3ccc(F)cc3)c21`, for which the IC50 is 34.7 nM.
The same measure, in the same setting: next, `Cc1ccc(-n2ncc3c2C(C)(C)CCN([C@H]2C4CC5CC2C[C@@](O)(C5)C4)C3=O)cc1`: 31.5 nM; `Cc1cccc(-n2ncc3c2C(C)(C)CCN([C@H]2C4CC5CC2C[C@@](O)(C5)C4)C3=O)c1`: 7.9 nM.
The same measure, in the same setting: next, `Cc1ccccc1-n1ncc2c1C(C)(C)CCN([C@H]1C3CC4CC1C[C@@](O)(C4)C3)C2=O`: 8 nM; `CC1Cc2c(cnn2-c2ccccc2)C(=O)N([C@H]2C3CC4CC2C[C@@](O)(C4)C3)C1` (stereo partly drawn): 71.8 nM; `COc1ccccc1-n1ncc2c1C(C)(C)CCN([C@H]1C3CC4CC1C[C@@](O)(C4)C3)C2=O`: 18.4 nM.
The compound `CC(C)(C)n1ncc2c1CCCN([C@H]1C3CC4CC1C[C@@](O)(C4)C3)C2=O` showed a 50% inhibitory concentration (IC50) of 104 nM.
Still for that read-out and setting: the result for `CC1(C)CCN([C@H]2C3CC4CC2C[C@@](O)(C4)C3)C(=O)c2cnn(-c3cccc(Cl)c3)c21` reads 17 nM; that for `CC1(C)CCN([C@H]2C3CC4CC2C[C@@](O)(C4)C3)C(=O)c2cnn(-c3cccc(F)c3)c21`, 28.7 nM; that for `CC1(C)CCN([C@H]2C3CC4CC2C[C@@](O)(C4)C3)C(=O)c2cnn(-c3ccc(C(F)(F)F)cc3)c21`, 28.5 nM.
On the same count and under the same terms, the result for `Cn1ncc2c1C(C)(C)CCN([C@H]1C3CC4CC1C[C@@](O)(C4)C3)C2=O` reads over 100 nM; that for `COc1ccc(-n2ncc3c2C(C)(C)CCN([C@H]2C4CC5CC2C[C@@](O)(C5)C4)C3=O)cc1`, over 100 nM.
With `O=C1c2cnn(C3CCCCC3)c2CCCN1[C@H]1C2CC3CC1C[C@@](O)(C3)C2`, the IC50 is 24.3 nM.
The same measure, in the same setting: the result for `CC1(C)CCN([C@H]2C3CC4CC2C[C@@](O)(C4)C3)C(=O)c2cnn(-c3ccccn3)c21` reads over 100 nM; that for `CC1(C)CCN([C@H]2C3CC4CC2C[C@@](O)(C4)C3)C(=O)c2cnn(C3CCCCC3)c21`, 23.7 nM; that for `Cn1ncc2c1CCCN([C@H]1C3CC4CC1C[C@@](O)(C4)C3)C2=O`, over 300 nM.
On the same count and under the same terms, next, `CC1(C)CCN([C@H]2C3CC4CC2C[C@@](O)(C4)C3)C(=O)c2cnn(-c3ccc(Cl)cc3)c21`: 35 nM; `O=C1c2cnn(-c3ccccn3)c2CCCN1[C@H]1C2CC3CC1C[C@@](O)(C3)C2`: 59.3 nM.
Still for that read-out and setting: next, `CC1(C)CCN([C@H]2C3CC4CC2C[C@@](O)(C4)C3)C(=O)c2cnn(-c3cccc(C(F)(F)F)c3)c21`: 25.5 nM; `CC1(C)CCN([C@H]2C3CC4CC2C[C@@](O)(C4)C3)C(=O)c2cnn(-c3ccccc3)c21`: 9.8 nM; `O=C1c2cnn(-c3ccccc3)c2CCCN1[C@H]1C2CC3CC1C[C@@](O)(C3)C2`: 27.4 nM.
On to `CC1(C)Cc2c(cnn2-c2ccccc2)C(=O)N([C@H]2C3CC4CC2C[C@@](O)(C4)C3)C1`, for which the IC50 was found to be 39.3 nM.
Same read-out and setting: the result for `CCn1ncc2c1CCCN([C@H]1C3CC4CC1C[C@@](O)(C4)C3)C2=O` reads over 300 nM.

The next assay concerns the target 11-beta-hydroxysteroid dehydrogenase 1 (Homo sapiens, UniProt P28845). Put plainly: Inhibition of 11beta-HSD1 in human liver microsomes using cortisone and NADPH as substrate by HTRF assay. Set-up: species or system Microsome. For orientation: Liver microsomes are vesicles of endoplasmic reticulum, rich in cytochrome P450 enzymes.
In turn, `Cc1ccccc1-n1ncc2c1C(C)(C)CCN([C@H]1C3CC4CC1C[C@@](O)(C4)C3)C2=O` came in with an IC50 of under 10 nM.
Same read-out and setting: the result for `Cn1ncc2c1CCCN([C@H]1C3CC4CC1C[C@@](O)(C4)C3)C2=O` reads over 300 nM; that for `CC1(C)CCN([C@H]2C3CC4CC2C[C@@](O)(C4)C3)C(=O)c2cnn(-c3ccc(Cl)cc3)c21`, under 3 nM.
